Measurements reported in US5602168A, “1-(N'-(arylalkylaminoalkyl)) aminoisoindoles; dopamine receptor subtype specific ligands” (Neurogen Corporation, priority 1995, dated 1997).
Read-outs that look alike come from different tables or passages of the source.

Columns and labels:
D2 receptors = conditions: background statement; cited from earlier work
D1 dopamine receptor = conditions: background statement; cited from earlier work
[1] = molecular target: T1, human dopamine D4 receptor (Homo sapiens, UniProt P21917); experiment: D4 receptor binding activity ([3H]YM-09151-2 displacement); conditions: human D4 clonal cell lines; 0.1 nM [3H]YM-09151-2; 60 minutes at 25° C.; pH 7.4
T1 construct: expressed in transfected cells
T1 sequence (P21917 1-419): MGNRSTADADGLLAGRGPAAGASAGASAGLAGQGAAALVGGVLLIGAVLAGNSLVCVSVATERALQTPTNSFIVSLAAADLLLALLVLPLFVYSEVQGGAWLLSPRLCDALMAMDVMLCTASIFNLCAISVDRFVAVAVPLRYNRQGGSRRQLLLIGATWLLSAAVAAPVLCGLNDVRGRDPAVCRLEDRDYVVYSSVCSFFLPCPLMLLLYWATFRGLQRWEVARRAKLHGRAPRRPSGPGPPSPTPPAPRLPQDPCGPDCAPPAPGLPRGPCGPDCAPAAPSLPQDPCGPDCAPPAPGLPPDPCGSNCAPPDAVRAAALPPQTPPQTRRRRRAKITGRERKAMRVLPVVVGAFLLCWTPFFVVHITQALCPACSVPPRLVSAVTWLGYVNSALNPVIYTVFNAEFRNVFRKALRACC
Description: Clonal cell lines expressing the human dopamine D4 receptor subtype were harvested in PBS and the cells centrifuged and the pellets stored at -80° C. until used in the binding assay. The pellets were resuspended and the cells lysed at 4° C. in 50 mM Tris pH 7.4 buffer containing 120 mM NaCl, 1 mM EDTA and 5 mM MgCl2. The homogenate is centrifuged at 48000×g for 10 minutes at 4° C. The resulting pellet is resuspended in fresh buffer and centrifuged again. After resuspension of the pellet in fresh buffer a […] aliquot is removed for protein determination. The remaining homogenate is centrifuged as above, the supernatant removed and the pellet stored at 4° C. until needed at which time it is resuspended to a final concentration of […] with 50 mM Tris buffer (pH 7.4) and 120 mM NaCl just prior to use. Incubations were carried out for 60 minutes at 25° C. in the presence of 0.1 nM [^3 H]YM-09151-2. The incubation was terminated by rapid filtration through Whatman GF/C filters and rinsed with 2×4 ml washes of chilled 50 mM Tris (pH 7.4) and 120 mM NaCl. Non-specific binding was determined with 1 mM spiperone and radioactivity determined by counting in an LKB beta counter. Binding parameters were determined by non-linear least squares regression analysis, from which the inhibition constant Ki could be calculated for each test compound. The binding characteristics of some examples of this invention are shown in Table 3 for the dopamine D4 binding assay.

D3 receptor = molecular target: T2, D3 receptor (Chlorocebus aethiops, UniProt P52703); experiment: D3 receptor binding activity ([3H]-YM 09151-2 displacement); parameters: species or system African Green monkey; conditions: COS cell pellets with recombinant D3; 0.5 nM 3H-YM 09151-2; nonspecific 1 mM spiperone
T2 construct: expressed in transfected cells; host or cells: COS cells (membrane homogenate)
Description: (§1) Pellets of COS cells containing recombinantly produced D2 or D3 receptors from African Green monkey were used for the assays. The sample is homogenized in 100 volumes (w/vol) of 0.05M Tris HCl buffer at 4° C. and pH 7.4. The sample is then centrifuged at 30,000×g and resuspended and rehomogenized. The sample is then centrifuged as described and the final tissue sample is frozen until use. The tissue is resuspended 1:20 (wt/vol) in 0.05M Tris HCl buffer containing 100 mM NaCl.
(§2) Incubations are carried out at […] and contain 0.4 ml of tissue sample, 0.5 nM ^3 H-YM 09151-2 and the compound of interest in a total incubation of 1.0 ml. Nonspecific binding is defined as that binding found in the presence of 1 mM spiperone; without further additions, nonspecific binding is less than 20% of total binding. The binding characteristics of examples of this patent for the D2 and D3 receptor subtypes are shown in Table 2 for Rat Striatal Homogenates.

D2 receptor = D2 receptor (Chlorocebus aethiops, UniProt P52702); experiment: D2 receptor binding activity ([3H]-YM 09151-2 displacement); parameters: species or system African Green monkey; conditions: COS cell pellets with recombinant D2; 0.5 nM 3H-YM 09151-2; nonspecific 1 mM spiperone
Description: as §1, §2

[2] = cited from earlier work

Sequence of D2 receptor (P52702 whole entry): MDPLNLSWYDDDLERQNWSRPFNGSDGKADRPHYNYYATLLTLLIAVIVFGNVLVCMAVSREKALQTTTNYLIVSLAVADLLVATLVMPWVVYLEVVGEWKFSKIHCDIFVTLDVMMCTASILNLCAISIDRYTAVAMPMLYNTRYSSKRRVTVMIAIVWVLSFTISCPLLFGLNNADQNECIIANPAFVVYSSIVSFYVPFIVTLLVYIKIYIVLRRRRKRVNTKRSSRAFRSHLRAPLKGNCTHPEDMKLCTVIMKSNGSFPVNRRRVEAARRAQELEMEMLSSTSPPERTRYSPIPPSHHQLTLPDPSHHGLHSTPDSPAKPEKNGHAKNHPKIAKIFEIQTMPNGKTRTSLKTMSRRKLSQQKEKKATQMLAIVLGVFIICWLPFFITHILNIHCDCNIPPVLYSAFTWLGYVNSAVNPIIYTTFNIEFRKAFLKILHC
T2 sequence (P52703 whole entry): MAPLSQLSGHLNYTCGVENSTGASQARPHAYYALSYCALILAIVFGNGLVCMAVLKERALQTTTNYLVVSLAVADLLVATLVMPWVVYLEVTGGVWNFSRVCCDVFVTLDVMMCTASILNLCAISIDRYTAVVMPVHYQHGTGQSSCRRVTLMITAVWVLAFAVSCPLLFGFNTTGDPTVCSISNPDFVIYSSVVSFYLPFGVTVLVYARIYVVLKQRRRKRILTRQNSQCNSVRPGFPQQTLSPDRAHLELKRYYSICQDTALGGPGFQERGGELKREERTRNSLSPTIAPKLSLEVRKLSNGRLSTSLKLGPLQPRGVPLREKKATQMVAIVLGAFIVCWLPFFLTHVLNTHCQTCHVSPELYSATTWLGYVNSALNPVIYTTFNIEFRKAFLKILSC

| SMILES | Ki [1] [nM] | Ki (D3 receptor) [nM] | Ki (D2 receptor) [nM] | other results |
| --- | --- | --- | --- | --- |
| O=C(CCCN1CCC(O)(c2ccc(Cl)cc2)CC1)c1ccc(F)cc1 [haloperidol] |  |  |  | binding affinity at D2 receptors (D2 receptors): in the subnanomolar range; binding at D1 dopamine receptor (D1 dopamine receptor): binds relatively weakly |
| c1cnc(N2CCN(CCNC3=NCc4ccccc43)CC2)nc1 [Compound 1] | 12 | > 100000 | 2380 |  |
| CN(CCCc1ccccc1)CCNC1=NCc2ccccc21 [Compound 3, 1-(N-[2-{N'-(3-phenylpropyl)-N'-methyl}aminoethyl])aminoisoindole dioxolate] | 100 | > 100000 | 1940 |  |
| CN1CCN(C2=Nc3cc(Cl)ccc3Nc3ccccc32)CC1 [clozapine] |  |  |  | incidence of extrapyramidal side effects (EPS) ([2]; versus classical neuroleptics, background statement): lesser incidence of extrapyramidal side effects (EPS) than classical neuroleptics |
| c1cnc(N2CCN(CCCNC3=NCc4ccccc43)CC2)nc1 [Compound 2] | 70 | > 100000 | 1420 |  |
| CCN1CCCC1CNC(=O)c1cc(S(N)(=O)=O)ccc1OC (stereo not shown) [sulpiride] |  |  |  | incidence of extrapyramidal side effects (EPS) ([2]; in vivo): lesser incidence of extrapyramidal side effects (EPS) than classical neuroleptics |
